From US11110079B2, “Mebendazole polymorph for treatment and prevention of tumors” (THE JOHNS HOPKINS UNIVERSITY, priority 2015, dated 2021)
“Also recorded” adds a separate entry of the source. Like-named read-outs stand apart in the source and are kept apart here.

Legend:
[1] = in vivo, po, 50 mg/kg
Experimental: (§1) Female C57BL6 mice, 5-6 weeks of age, were purchased from NCl. Animal experimentation was conducted under an approved IACUC protocol and complied with local and national guidelines. All MBZ polymorphs and tablets were administered by oral gavage at a dose of 50 mg/kg. Elacridar was administered by oral gavage at 50 mg/kg 2 hours prior to the administration of MBZ-C. Mice (3 animals/time point) were first anesthetized via intraperitoneal injection of 60 μl of a stock solution containing ketamine hydrochloride (75 mg/kg) (100 mg/ml; Ketamine HCl; Abbot Laboratories, Chicago, Ill., USA) and xylazine (7.5 mg/kg) (100 mg/ml; Xyla-ject®, Phoenix Pharmaceutical, St. Joseph, Mo., USA) in a sterile 0.9% NaCl solution. Then the blood samples were taken by puncturing and aspiring from the left heart ventricle. Blood samples were mixed with 5 mM EDTA and centrifuged at 10000 g for 5 min to obtain the plasma for further analysis.
(§2) Blood, brain and brain tumor tissues were harvested as a function of time after MBZ administration. To compare the pharmacokinetics of MBZ polymorphs, three cohorts of mice each were administered a single dose of 50 mg/kg by oral gavage. For the initial comparison studies, plasma samples were obtained at 1, 2.5, 4, 6, 8, 15, and 24 hours after MBZ administration while brain tissue was only collected at 6 hours. For the comparison studies of polymorph C with or without ELD, plasma and brain tissue samples were obtained at 2.5, 4, and 8 hours after MBZ administration. Brain tumor tissue samples were also obtained for polymorph C alone.
(§3) MBZ and the two metabolites, 2-amino-5-benzoyl-benzimidazole (MBZ-NH2, CAS 52329-60-9) and rac dihydro mebendazole (MBZ-OH, CAS 60254-95-7), were quantified in plasma, brain and brain tumor tissue. Tissue homogenates were prepared at a concentration of 200 mg/ml in plasma prior to extraction. Mebendazole and metabolites were extracted from 50 μl of plasma or tissue homogenates with 0.1 ml of methanol containing 0.5 μg/ml of the internal standard A620223.69. After centrifugation, the supernatant (60 μl) was mixed with water (40 μl) and then transferred into autosampler vials. […] The analytes were monitored using an AB Sciex triple quadrapole™ 5500 mass-spectrometric detector (Applied Biosystems, Foster City, Calif., USA) using electrospray ionization operating in positive mode. The spectrometer was programmed to allow the [MH+] ions of MBZ, MBZ-NH2, MBZ-OH, and A620223.69 at m/z 296.0, 238.0, 298.0, and 287.2, respectively to pass through the first quadrupole (Q1) and into the collision cell (Q2). The daughter ions for MBZ (m/z 263.9), MBZ-NH2 (m/z 105.1), MBZ-OH (m/z 266.0), and A620223.69 (m/z 124.1) were monitored through the third quadrupole (Q3). Calibration curves for MBZ and metabolites were computed using the area ratio peak of the analysis to the internal standard by using a quadratic equation with a 1/x weighting function over the range of 5 to 500 ng/ml (MBZ) and 1 to 500 ng/ml (metabolites) with dilutions of up to 1:100 (v:v). If one or more concentrations were below limits of quantification, a value of ½ the limit of quantification was assigned for pharmacokinetic calculations. If two consecutive time points were below limits of quantification, the last one was excluded from the analysis.
Mean plasma and brain concentrations were calculated at each time point for both MBZ and its metabolites. 1.045 g/ml was used as the average wet rodent brain tissue density (16). Pharmacokinetic parameters were calculated from mean MBZ and its metabolites concentration-time data using noncompartmental methods as analyzed in Phoenix® WinNonlin® version 6.3 (Pharsight Corp., Mountain View, Calif.). Cmax and Tmax were the observed values from the mean concentration data. The AUClast was calculated using the log-linear trapezoidal method. λz was determined from the slope of the terminal phase of the concentration-time profile. The terminal half-life (T1/2) was determined by dividing 0.693 by λz. […]

in vivo = settings: for mean B/P ratio: 6 h
Experimental: as §1
For brain distribution studies, mice were perfused under anesthesia with 20 ml ice-cold saline supplemented with 20 μl of 0.02% heparin by injecting slowly into the left heart ventricle using a 20 gauge needle. The right atrium was cut open before to allow the blood outflow. The yellow color of kidney indicated a good perfusion quality that was essential to deplete blood from the brain tissue. In GL261 tumor-bearing mice, GL261 tumor was distinguished from the normal brain by easily recognizable differences in color and shade. GL261 tumor was separated with a scalpel and the normal brain tissue was cut from the contralateral hemisphere. All brain samples were weighed and stored at −80° C. before processing.
as §2
as §3, with “calculations.” for “calculations. If two consecutive time points were below limits of quantification, the last one was excluded from the analysis.”

GL261 glioma cells = assay: Cytotoxicity in cultured GL261 cells (colorimetric assay, 72 h); assay type: cell-based, mouse; settings: for cytotoxicity in GL261 cells: in vitro
Experimental: Cells were incubated with the indicated drugs for 72 h and the living cells were measured by the colorimetric assay.
(3,14) GL261 and D425 cells were maintained in DMEM media supplemented with 10% fetal bovine serum and antibiotics at 37° C. in humidified air containing 5% CO2.

GL261-luc glioma = settings: for mean survival: GL261 model, MBZ polymorphs 50 mg/kg oral; for difference in survival (Mantel-Cox test): GL261-luc glioma-bearing mice, 100 mg/kg oral gavage from day 5; for survival of GL261 glioma-bearing mice: other benzimidazoles, even at higher doses than MBZ
Experimental: All animal studies were approved by the Animal Care and Use Committee (ACUC) of the Johns Hopkins University. The intracranial implantation of GL261-luc in the frontal lobe and D425 cells in the cerebellum of the mouse brain followed the procedure described before (3,4). […] MBZ and other benzimidazoles were prepared by either mixing the power with PBS and sesame oil (1:1, v:v) (Sigma) or by grinding the tablets to powder and resuspending in the aforementioned PBS/sesame oil mixture. Elacridar was prepared as a 10 mg/ml suspension in 0.5% hydroxypropylmethylcellulose and 0.5% Tween 80 in PBS similarly as described before (15).
Animal survival data were analyzed by GraphPad Prism 5.0. The p-values were determined by a Mantel-Cox test. A p-value under 0.05 was accepted as statistically significant.

D425 medulloblastoma = assay: Orthotopic D425 medulloblastoma xenograft model (survival); assay type: in vivo, mouse; settings: D425 model, elacridar alone; marginal
Experimental: The intracranial implantation of GL261-luc in the frontal lobe and D425 cells in the cerebellum of the mouse brain followed the procedure described before (3,4). Five days after tumor implantation, mice were gavaged with MBZ or the other benzimidazoles at 50 mg/kg five days a week. MBZ and other benzimidazoles were prepared by either mixing the power with PBS and sesame oil (1:1, v:v) (Sigma) or by grinding the tablets to powder and resuspending in the aforementioned PBS/sesame oil mixture. Elacridar was prepared as a 10 mg/ml suspension in 0.5% hydroxypropylmethylcellulose and 0.5% Tween 80 in PBS similarly as described before (15).

[2] = female, C57BL6, mouse, po, 50 mg/kg

COC(=O)Nc1nc2ccc(C(O)c3ccccc3)cc2[nH]1 (racemic) [MBZ-OH, rac dihydro mebendazole]
plasma AUC0-24 h of metabolite ([1]; mouse): 5,781 h*ng/ml

COC(=O)Nc1nc2ccc(C(=O)c3ccccc3)cc2[nH]1 [MBZ-A, Mebendazole]
mean B/P ratio (in vivo; [2]): 0.32 | plasma AUC0-24 h ([1]; female, C57BL6, mouse): 3,052 h*ng/ml | plasma AUC0-24 h relative to MBZ-C ([1]; female, C57BL6, mouse): 19% | cytotoxicity in GL261 cells (GL261 glioma cells): equal cytotoxicity

Nc1nc2ccc(C(=O)c3ccccc3)cc2[nH]1 [MBZ-NH2, 2-amino-5-benzoyl-benzimidazole]
B/P ratio of MBZ-NH2 (in vivo; female, C57BL6, mouse): 0.12 | elevation of B/P ratio by co-administration of elacridar (in vivo; female, C57BL6, mouse): 2.5 folds | distribution in GL261 brain tumor vs contralateral normal brain tissue (in vivo; [2]): preferentially accumulated in the GL261 brain tumor | elevation of AUC0-8 h by co-administration of elacridar (in vivo; mouse): 2.4 folds | brain levels of metabolite in terms of Cmax and AUC0-24 h (in vivo; mouse, po, 50 mg/kg): much lower levels than MBZ-OH | distribution in GL261 brain tumor vs contralateral normal brain tissue (in vivo; mouse, po, 50 mg/kg): significantly higher levels than in the contralateral brain | plasma AUC0-24 h of metabolite ([1]; female, C57BL6, mouse): 10,516 h*ng/ml | cytotoxicity in GL261 cells (GL261 glioma cells): only a marginal cytotoxicity; also recorded: least cytotoxic

COc1cc2c(cc1OC)CN(CCc1ccc(NC(=O)c3cccc4c(=O)c5cccc(OC)c5[nH]c34)cc1)CC2 [elacridar]
median survival (GL261-luc glioma; GL261, single agent 50 mg/kg, control 29.5 days): 34 days | survival benefit (D425 medulloblastoma): 9 days | IC50 (GL261 glioma cells; GL261 mouse glioma cells): 5.8 µM

COC(=O)Nc1nc2ccc(C(=O)c3ccccc3)cc2[nH]1 [MBZ-C, Mebendazole]
mean survival (GL261-luc glioma): 48.5 days | efficacy in GL261 glioma model (GL261-luc glioma; oral gavage 50 mg/kg, from day 5 after implantation, 50 mg/kg): best efficacy | Kp (in vivo; female, C57BL6, mouse, AUC0-24h B/P ratio): 0.82 | brain Cmax, equivalent concentration (in vivo; female, C57BL6, mouse, po): 7.1 µM | peak brain concentration (in vivo; [2]): 2,016 ng/g | Kp at 8 h (in vivo; female, C57BL6, mouse, po, 50 mg/kg, brain/plasma (B/P) ratio on average): 0.75 | change of brain concentration of MBZ in terms of AUC0-8h (in vivo; mouse, po, 50 mg/kg): did not significantly change | time of peak brain concentration after oral administration (in vivo; mouse, po, 50 mg/kg): Four | plasma AUC0-24 h ([1]; female, C57BL6, mouse): 16,039 h*ng/ml | cytotoxicity in GL261 cells (GL261 glioma cells): equal cytotoxicity

COC(=O)Nc1nc2ccc(C(=O)c3ccccc3)cc2[nH]1 [MBZ-B, Mebendazole]
toxicity in GL261 glioma-bearing mice (GL261-luc glioma; 50 mg/kg oral): presumably died from drug toxicity | treatment-related death among 6 treated mice (GL261-luc glioma; GL261 glioma-bearing mice, 50 mg/kg oral): 1 | mean survival (GL261-luc glioma): 45 days | mean B/P ratio (in vivo; [2]): 0.64 | plasma AUC0-24 h ([1]; female, C57BL6, mouse): 26,474 h*ng/ml | plasma AUC0-24 h relative to MBZ-C ([1]; female, C57BL6, mouse): 165% | cytotoxicity in GL261 cells (GL261 glioma cells): equal cytotoxicity

COC(=O)Nc1nc2cc(C(=O)c3ccc(F)cc3)ccc2[nH]1 [flubendazole]
difference in survival (Mantel-Cox test) (GL261-luc glioma): not significant | survival of GL261 glioma-bearing mice (GL261-luc glioma): failed or only marginally improved the survival

COC(=O)Nc1nc2cc([S+]([O-])c3ccccc3)ccc2[nH]1 (stereo not drawn) [oxifendazole]
difference in survival (Mantel-Cox test) (GL261-luc glioma): not significant | survival of GL261 glioma-bearing mice (GL261-luc glioma): failed or only marginally improved the survival

c1ccc2[nH]c(-c3cscn3)nc2c1 [thiabendazole, Thiabendazole]
difference in survival (Mantel-Cox test) (GL261-luc glioma): not significant | survival of GL261 glioma-bearing mice (GL261-luc glioma): failed or only marginally improved the survival

CCCSc1ccc2nc(NC(=O)OC)[nH]c2c1 [albendazole]
survival of GL261 glioma-bearing mice (GL261-luc glioma): failed or only marginally improved the survival

COC(=O)Nc1nc2ccc(Sc3ccccc3)cc2[nH]1 [fenbendazole]
difference in survival (Mantel-Cox test) (GL261-luc glioma): not significant | survival of GL261 glioma-bearing mice (GL261-luc glioma): failed or only marginally improved the survival
